These results are taken from article PMC7918738, “Microtubule Destabilizing Sulfonamides as an Alternative to Taxane-Based Chemotherapy” (International Journal of Molecular Sciences, 2021).

Series [1] has as its system SKOV3 ovarian carcinoma cells. As to the kind of experiment: Antiproliferative activity against SKOV3 (MTT). Format: cell-based. The conditions noted are these: Homo sapiens, SK-OV-3, 72 h. The procedure:
(§1) The in vitro antiproliferative activity of compounds 38, 42, and 45 against a panel of five human ovarian carcinoma cell lines (SKOV3, IGROV-1, A2780, OVCAR-8, and OVCAR-3) was evaluated by a colorimetric method (Table 3) and compared with paclitaxel. […] For SKOV3, the potency reduction observed for paclitaxel together with a sustained or improved (42 with a 7 nM IC50 value) potency for MDS results in a more favorable profile of the MDS compared to paclitaxel.
(§2) MCF7 (human breast carcinoma), SKOV-3 (human ovarian carcinoma), OVCAR-3 (human ovarian carcinoma), OVCAR-8 (human ovarian carcinoma), and HeLa (human cervical carcinoma) cell lines were cultured in Dulbecco’s Modified Eagle’s Medium (DMEM) (Gibco, Thermo Fischer Scientific) containing 10% (v/v) heat-inactivated fetal bovine serum (HIFBS) (Lonza-Cambrex, Karlskoga, Sweden), 2 mM L-glutamine (Lonza-Cambrex, Karlskoga, Sweden), 100 μg/mL streptomycin, and 100 IU/mL penicillin (Lonza-Cambrex) at 37 °C in humidified 95% air and 5% CO2. HT-29 (human colon carcinoma), IGROV-1 (human ovarian carcinoma), and A2780 (human ovarian carcinoma) cell lines were cultured in RPMI 1640 medium (Gibco, Thermo Fischer Scientific) supplemented with 10% HIFBS, 100 μg/mL streptomycin, and 100 IU/mL penicillin at 37 °C in humidified 95% air and 5% CO2 atmosphere. The presence of mycoplasma was routinely checked with MycoAlert kit (Lonza-Cambrex) and only mycoplasma-free cells were used in the experiments. Ovarian tumor cell lines were originally acquired from Dr Atanasio Pandiella from Centro de Investigación del Cáncer (CIC), Salamanca, Spain. HeLa, HT-29 and MCF7 tumor cell lines were provided by Dr Faustino Mollinedo from Centro de Investigaciones Biológicas Margarita Salas, Madrid, Spain.
(§3) MCF7, HeLa, and HT-29 cell proliferation, when treated with the corresponding compounds, were determined using the XTT (sodium 3’-[1(phenylaminocarbonyl)-3,4-tetrazolium]-bis(4-methoxy-6-nitro)-benzenesulfonic acid hydrate) cell proliferation kit (Roche Molecular Biochemicals, Mannheim, Germany). […] The absorbance of the formazan product generated was measured at 450 nm using a multi-well plate reader. SKOV-3, OVCAR-3, OVCAR-8, IGROV-1, A-2780 cell proliferation, when treated with the corresponding compound, were determined using MTT (3-(4,5-dimethylthiazol-2-yl)-2,5-diphenyl-2H-tetrazolium bromide) (Sigma-Aldrich, St. Louis, MO, USA). […] Absorbance was measured at 570 nm in a plate reader (Ultra Evolution, Tecan, Männedorf, Suiza). […] After 24 h incubation, to allow cells to attach to the plates, all compounds were added at 1 µM concentration and the effect on the proliferation was evaluated 72 h post-treatment. […]

Series [2] concerns IGROV-1 ovarian carcinoma cells. As to the kind of experiment: Antiproliferative activity against IGROV-1 (MTT). Format: cell-based. The settings on record: Homo sapiens, 72 h. The protocol: as §1, §2, §3
The next series concerns SKOV3 cells. Put plainly: Annexin V-FITC/PI cell death quantification in SKOV3. The format is cell-based, human. The conditions noted are these: SKOV3, 72 h, 38 600 nM, 42 50 nM, 45 400 nM, paclitaxel 10 nM. The procedure:
To determine whether the cytotoxic/antiproliferative effect of the MDS was due to apoptosis induction, cells were treated with variable concentrations of the drug for 72 h or 6 days, stained with Annexin V-FITC (AnV) and propidium iodide (PI), and analyzed by flow cytometry. Double negative cells (AnV^−/PI^−) were classified as live cells (L), cells positive for AnV and negative for PI (AnV^+/PI^−) were considered in Early Apoptosis (EA), cells negative for AnV and positive for PI (AnV^−/PI^+) were considered necrotic (N), and double-positive cells (AnV^+/PI^+) as Late Apoptosis (LA). In all cases, the compounds were used at the same concentrations previously used in cell cycle studies (Table 5).
MCF7, SKOV-3, and HeLa apoptotic cells were quantified using an Annexin V-FITC/PI apoptosis detection kit (Immunostep, Salamanca, Spain) according to the manufacturer’s guidelines. 1.5 mL/well of cells in the exponential growth phase at 2·10^4 cells/mL were seeded onto 12-well plates and left to attach overnight. After 24 h incubation, cells were treated with selected compounds. After 72 h (MCF7, SKOV-3, and HeLa) and 6 days (MCF7) post-treatment, attached and floating cells of treated and untreated wells were collected, centrifuged, resuspended in Annexin V binding buffer, and stained with Annexin V-FITC/PI. Cells were then incubated in darkness at room temperature for 15 min and a total of 30,000 cells were acquired and analyzed using the BD Accuri™ C6 Plus Flow Cytometer and Software (version 1.0.264.21, BD Biosciences, San José, CA, USA), respectively. Compounds were dissolved in DMSO and the final solvent concentration never exceeded 0.5% (v/v). Control wells included cells with 0.5% (v/v) DMSO.

Series [3] deals with HeLa (cervix epithelioid carcinoma). Details: method as in PMID 7903152. The conditions noted are these: read-out: Antiproliferative Activity IC50 HeLa; cited from earlier work.
Series [4] concerns MCF7 (breast adenocarcinoma). On the set-up: method as in PMID 7903152. The conditions noted are these: read-out: Antiproliferative Activity IC50 MCF7; cited from earlier work.
Details of series [5]: method as in PMID 12734814, PMID 17116587, PMID 17613018. The conditions noted are these: cited from earlier work.
The subject of series [6] is A2780 ovarian carcinoma cells. On the set-up: method as in ref 14 (Bicaku, E. et al.). The settings on record: ref 14 (Bicaku, E. et al.); read-out: Antiproliferative Activity IC50 A2780; cited from earlier work.
Series [7] deals with OVCAR-8 ovarian carcinoma cells. Details: method as in ref 14 (Bicaku, E. et al.). The conditions noted are these: ref 14 (Bicaku, E. et al.); read-out: Antiproliferative Activity IC50 OVCAR-8; cited from earlier work.
For series [8], the system named is OVCAR-3 ovarian carcinoma cells. On the set-up: method as in ref 14 (Bicaku, E. et al.). The settings on record: ref 14 (Bicaku, E. et al.); read-out: Antiproliferative Activity IC50 OVCAR-3; cited from earlier work.
Series [9] has as its system HT-29 (colon adenocarcinoma). Details: method as in ref 52 (a number printed in a supplementary file, which may have a reference list of its own: not looked up in the article's list). The settings on record: read-out: Antiproliferative Activity IC50 HT-29; cited from earlier work.

In the case of `CC(=O)O[C@H]1C(=O)[C@@]2(C)[C@H]([C@H](OC(=O)c3ccccc3)[C@]3(O)C[C@H](OC(=O)[C@H](O)[C@@H](NC(=O)c4ccccc4)c4ccccc4)C(C)=C1C3(C)C)[C@]1(OC(C)=O)CO[C@@H]1C[C@@H]2O` [Paclitaxel, reference compound], the half-inhibitory concentration (IC50) in series [1] is 81 nM; in series [2], 39 nM; in series [3], 2.6 nM; in series [4], 2.5 nM; in series [6], 3 nM; in series [7], 6 nM. For the same compound, the IC50 was 17 nM in series [8] and 2.8 nM in [9]. Further, the “Annexin V-FITC/PI 72 h EA (early apoptosis)” value with SKOV3 cells is 3.8%. Besides, the “Annexin V-FITC/PI 72 h LA (late apoptosis)” value in the series with SKOV3 cells is on record as 3.1%. In addition, the “Annexin V-FITC/PI 72 h Live” value in the series with SKOV3 cells turned out to be 90.7%; with SKOV3 cells (listed as paclitaxel) it was 91%. Besides, the “Annexin V-FITC/PI 72 h Necrosis” value with SKOV3 cells is on record as 2.4%. Also, the “Annexin V-positive SKOV3 cells” value with SKOV3 cells came out at 7%. The Aqueous solubility in series [5] was <2 µg/mL.
